“Also recorded” adds a separate entry of the source. Positions of bridges follow the written chain, without caps; N, C: chain ends. No end group written: not given here.
Key:
[1] = test system: cisplatin-treated Sprague-Dawley rats; assay: Rat cisplatin model of acute kidney injury; assay type: in vivo; conditions: for ICAM-1 in kidney sections: anti-ICAM-1 staining; for ICAM-1 in kidney sections / proliferating cells / cellular regeneration (PCNA) / macrophages accumulating in the kidneys: b674: 2.8 mg/kg bw; for proliferating cells / cellular regeneration (PCNA): anti-PCNA staining; for macrophages accumulating in the kidneys: macrophage-specific marker
Source text: The rat cisplatin model has been studied extensively and is considered a relevant model for human acute kidney injury. Kidneys from cisplatin-treated animals show little evidence of cell proliferation. In contrast, animals that are protected or are able to recover from the nephrotoxic effects of cisplatin treatment show proliferation as detected by anti-proliferating cell nuclear antigen or PCNA antibodies. This model provides a mechanism for identifying agents that can protect the kidney from inflammatory cytokine-mediated injury, as well as, in repairing organ damage. Macrophages infiltrate the kidneys of animals treated with cisplatin and this early marker of nephropathy can be detected using anti CD-68 antibodies. Agents that decrease the number of macrophages in kidneys and prevent inflammatory cell-mediated damage associated with cisplatin treatment can be detected using immuno-histological analysis. Kidney sections treated with agents that show increased expression of α-actin in smooth muscle cells (SMC) are indicative of protecting the in integrity of SMC and alleviating injurious damage to the kidney.
Male Sprague-Dawley rats (˜250 gm) are injected ip with 5 mg/kg cisplatin (1 mg/ml in water) at time zero to induce acute renal failure. In this model, clinical signs (rise in serum creatinine) peaks at 4 to 5 days. The test compound and control substances were administered iv via the tail vein as 0.5 ml slow bolus injections. The negative control substance was the vehicle (PBS pH 7.2+5% Mannitol), while the positive control therapy was recombinant human mature BMP-7 (BMP-7 or TDF-1). The end points are serum creatinine and BUN levels and histology.
TDFRP Compound (SEQ ID NO:45) was tested in male Sprague-Dawley rats (250 gm to 300 gm) to establish the dose range and the extent to which the compound is able to prophylactically and therapeutically ameliorate the renal toxic effects of cisplatin. The cisplatin dosing level was the chemotherapeutic level used in humans, 40 ug/kg bw. The end points were the level of creatinine in serum and kidney histology. […]
A stock solution (70 mg/ml) of TDFRP (SEQ ID NO:45) was made by dissolving it in 20 mM Acetate (ph 4.2). The stock solution was further diluted into phosphate buffered saline (PBS, pH 7.2) plus 5% Mannitol to compound concentrations of 14 mg/ml (28 mg/kg dose), 1.4 mg/ml (2.8 mg/kg dose) and 0.14 mg/ml (0.28 mg/kg dose).
Cisplatin was administered via i.p. injection (40 ug/kg bw) at time zero. Administration of therapeutic dosing of the compound, the BMP-7 positive control and vehicle negative control were by slow bolus i.v. injection through the tail vein at five time points: 2 hours before the administration of cisplatin, then at 24 hours, 48 hours, 72 hours and 96 hours post cisplatin administration. Blood samples were collected through the tail vein at time points of 0, 24, 48, 72 and 96 hours. At seven day sample was collected by exsanguination at sacrifice. Serum was prepared from the blood samples and analyzed for creatinine concentration. The serum concentration of creatinine, a byproduct of muscle activity that is released into the blood stream and cleared through the kidneys, is a marker of kidney function that tends to rise when kidney function becomes severely compromised (FIG. 21).
Upon sacrifice at seven days, the kidneys were harvested, fixed in formalin and imbedded in paraffin. They were then sagitally sectioned and stained in H&E stain. Kidney sections were also stained with anti-bodies against proliferating cell nuclear antigen (PCNA) (to identify sites of cell regeneration), macrophages, I-CAM-1, and smooth muscle. Also collected at sacrifice were tissues at and around the injection site (FIGS. 22, 25, 26).

[2] = test system: NTN mice; conditions: cited from earlier work

Molecule: CYFDDSSNVLCKKYRS (disulfide 1-11 (inferred); not fully specified) [SEQ ID NO:45]
- tubule structure of the kidney (H&E sections) ([1]; 2.8 mg/kg b.w.): improved
- cisplatin-induced inflammation of the kidney cortex ([1]; 2.8 mg/kg bw): significantly reduced
- smooth muscle loss ([1]; 2.8 mg/kg bw): reduced
- serum creatinine at the highest dose ([1]; 28 mg/kg bw i.v.): more efficacious than the positive control; also recorded: return closer to base-line levels
- cisplatin-induced level of creatinine in serum ([1]; 0.28, 2.8 and 28 mg/kg bw i.v.): reduces
- ICAM-1 in kidney sections [1]: reduced
- ICAM-1 in kidney sections ([1]; listed as SEQ ID NO 45): less ICAM-positive material
- proliferating cells / cellular regeneration (PCNA) [1]: increased the degree of cellular regeneration
- proliferating cells / cellular regeneration (PCNA) ([1]; listed as SEQ ID NO 45): Proliferating cells are observed
- macrophages accumulating in the kidneys [1]: reduced
- macrophages accumulating in the kidneys ([1]; listed as SEQ ID NO 45): less macrophages
- nephrotoxic effects of cisplatin exposure ([1]; rat, in vivo): reduce or ameliorate
- renal tubular morphology (tubular atrophy, necrosis and dilation) ([1]; rat, in vivo): improved the morphology and structure of the kidney tubules

B1: BMP-7: recombinant human mature BMP-7 (BMP-7 or TDF-1), positive control therapy (protein)
chain: STGSKQRSQNRSKTPKNQEALRMANVAENSSSDQRQACKKHELYVSFRDLGWQDWIIAPEGYAAYYCEGECAFPLNSYMNATNHAIVQTLVHFINPETVPKPCCAPTQLNAISVLYFDDSSNVILKKYRNMVVRACGCH
- peak serum creatinine levels in response to cisplatin ([1]; BMP-7 30 ug/kg bw and 200 ug/kg bw): lower peak serum creatinine levels
- renal tubular morphology (tubular atrophy, necrosis and dilation) ([1]; rat, in vivo): Improvement of Renal Tubular Morphology
- progression to chronic renal disease ([2]; about 300 micrograms/kg, starting after one week of NTN): prevent progression to chronic renal disease
- renal pathology ([2]; treatment from week 3 or week 4 through week 6): almost completely reversed renal pathology
